# Laboratory results taken from PubChem BioAssay AID1259407 (Chemical Carcinogenesis Research Information System (CCRIS), 2018).
# Calls of active or inactive are those of the source. The rule behind the calls is not given here.
# Tested on: CCRIS mutagenicity, Ames/micronucleus/aberration tests
# Assay: CCRIS mutagenicity studies
# [1] = Test System: AMES SALMONELLA TYPHIMURIUM, Strain/Indicator: TA100, Metabolic Activation: NONE, Method: STANDARD PLATE
# [2] = Test System: AMES SALMONELLA TYPHIMURIUM, Strain/Indicator: TA98, Metabolic Activation: NONE, Method: STANDARD PLATE
# [3] = Test System: AMES SALMONELLA TYPHIMURIUM, Strain/Indicator: TA98, Metabolic Activation: NONE, Method: PREINCUBATION
smiles,measurement,setting,value
COc1ccc(C(O)(c2cncnc2)C2CC2)cc1 (configuration not stated),mutagenic call,"Test System: Ames Salmonella typhimurium, Strain/Indicator: TA98, Metabolic Activation: None, Method: Standard Plate",inactive; negative
same,mutagenic call,"Test System: Ames Salmonella typhimurium, Strain/Indicator: TA98, Metabolic Activation: Rat, liver, S-9, Method: Standard Plate",inactive; negative
same,mutagenic call,"Test System: Ames Salmonella typhimurium, Strain/Indicator: TA100, Metabolic Activation: None, Method: Standard Plate",inactive; negative
same,mutagenic call,"Test System: Ames Salmonella typhimurium, Strain/Indicator: TA100, Metabolic Activation: Rat, liver, S-9, Method: Standard Plate",inactive; negative
same,mutagenic call,"Test System: Ames Salmonella typhimurium, Strain/Indicator: TA1535, Metabolic Activation: None, Method: Standard Plate",inactive; negative
same,mutagenic call,"Test System: Ames Salmonella typhimurium, Strain/Indicator: TA1535, Metabolic Activation: Rat, liver, S-9, Method: Standard Plate",inactive; negative
same,mutagenic call,"Test System: Ames Salmonella typhimurium, Strain/Indicator: TA1537, Metabolic Activation: None, Method: Standard Plate",inactive; negative
same,mutagenic call,"Test System: Ames Salmonella typhimurium, Strain/Indicator: TA1537, Metabolic Activation: Rat, liver, S-9, Method: Standard Plate",inactive; negative
same,mutagenic call,"Test System: Ames Salmonella typhimurium, Strain/Indicator: TA1538, Metabolic Activation: None, Method: Standard Plate",inactive; negative
same,mutagenic call,"Test System: Ames Salmonella typhimurium, Strain/Indicator: TA1538, Metabolic Activation: Rat, liver, S-9, Method: Standard Plate",inactive; negative
same,mutagenic call,"Test System: Mouse lymphoma, Strain/Indicator: L5178Y (TK+/TK-), Metabolic Activation: None, Method: Suspension/Plate",inactive; negative
same,mutagenic call,"Test System: Mouse lymphoma, Strain/Indicator: L5178Y (TK+/TK-), Metabolic Activation: S-9 of unspecified origin, Method: Suspension/Plate",inactive; negative
Cc1ccc(NC(=O)CBr)cc1,mutagenic call,"Test System: AMES SALMONELLA TYPHIMURIUM, Strain/Indicator: TA100, Metabolic Activation: MOUSE, LIVER, S-9, AROCLOR 1254, Method: STANDARD PLATE",inactive; negative
same,mutagenic call,[1],inactive; negative
CC/C(=C(\c1ccccc1)c1ccc(OCCN(C)C)cc1)c1ccccc1,mutagenic call,"End Point: IN VITRO CHROMOSOMAL ABERRATIONS, Test System: SYRIAN HAMSTER EMBRYO (SHE) CELLS, Metabolic Activation: NONE",inactive; negative
same,mutagenic call,"End Point: IN VITRO MICRONUCLEUS, Test System: AHH-1 CELLS, Metabolic Activation: NONE",inactive; negative
same,mutagenic call,"End Point: IN VITRO MICRONUCLEUS, Test System: MCL-5 CELLS, Metabolic Activation: NONE",active; positive
same,mutagenic call,"Test System: AMES SALMONELLA TYPHIMURIUM, Strain/Indicator: TA98, Metabolic Activation: HAMSTER, LIVER, S-9, AROCLOR 1254, Method: STANDARD PLATE",inactive; negative
same,mutagenic call,[2],inactive; negative
same,mutagenic call,"Test System: AMES SALMONELLA TYPHIMURIUM, Strain/Indicator: TA98, Metabolic Activation: RAT, LIVER, S-9, AROCLOR 1254, Method: STANDARD PLATE",inactive; negative
same,mutagenic call,"Test System: AMES SALMONELLA TYPHIMURIUM, Strain/Indicator: TA100, Metabolic Activation: HAMSTER, LIVER, S-9, AROCLOR 1254, Method: STANDARD PLATE",inactive; negative
same,mutagenic call,[1],inactive; negative
same,mutagenic call,"Test System: AMES SALMONELLA TYPHIMURIUM, Strain/Indicator: TA100, Metabolic Activation: RAT, LIVER, S-9, AROCLOR 1254, Method: STANDARD PLATE",inactive; negative
same,mutagenic call,"Test System: AMES SALMONELLA TYPHIMURIUM, Strain/Indicator: TA1535, Metabolic Activation: HAMSTER, LIVER, S-9, AROCLOR 1254, Method: STANDARD PLATE",inactive; negative
same,mutagenic call,"Test System: AMES SALMONELLA TYPHIMURIUM, Strain/Indicator: TA1535, Metabolic Activation: NONE, Method: STANDARD PLATE",inactive; negative
same,mutagenic call,"Test System: AMES SALMONELLA TYPHIMURIUM, Strain/Indicator: TA1535, Metabolic Activation: RAT, LIVER, S-9, AROCLOR 1254, Method: STANDARD PLATE",inactive; negative
same,mutagenic call,"Test System: AMES SALMONELLA TYPHIMURIUM, Strain/Indicator: TA1537, Metabolic Activation: HAMSTER, LIVER, S-9, AROCLOR 1254, Method: STANDARD PLATE",inactive; negative
same,mutagenic call,"Test System: AMES SALMONELLA TYPHIMURIUM, Strain/Indicator: TA1537, Metabolic Activation: NONE, Method: STANDARD PLATE",inactive; negative
same,mutagenic call,"Test System: AMES SALMONELLA TYPHIMURIUM, Strain/Indicator: TA1537, Metabolic Activation: RAT, LIVER, S-9, AROCLOR 1254, Method: STANDARD PLATE",inactive; negative
same,mutagenic call,"Test System: AMES SALMONELLA TYPHIMURIUM, Strain/Indicator: TA1538, Metabolic Activation: HAMSTER, LIVER, S-9, AROCLOR 1254, Method: STANDARD PLATE",inactive; negative
same,mutagenic call,"Test System: AMES SALMONELLA TYPHIMURIUM, Strain/Indicator: TA1538, Metabolic Activation: NONE, Method: STANDARD PLATE",inactive; negative
same,mutagenic call,"Test System: AMES SALMONELLA TYPHIMURIUM, Strain/Indicator: TA1538, Metabolic Activation: RAT, LIVER, S-9, AROCLOR 1254, Method: STANDARD PLATE",inactive; negative
same,mutagenic call,"Test System: CHINESE HAMSTER V-79, Strain/Indicator: V-79 (HPRT)/6-THIOGUANINE, Metabolic Activation: NONE",inactive; negative
Cc1ccc(Nc2ccc([N+](=O)[O-])cc2)cc1,mutagenic call,"Test System: AMES SALMONELLA TYPHIMURIUM, Strain/Indicator: TA98(NR), Metabolic Activation: NONE, Method: PREINCUBATION",inactive; negative
same,mutagenic call,[3],active; positive
same,mutagenic call,"Test System: AMES SALMONELLA TYPHIMURIUM, Strain/Indicator: TA98, Metabolic Activation: RAT, LIVER, S-9, AROCLOR 1254, Method: PREINCUBATION",active; positive
NC[N+](=O)[O-],mutagenic call,"Test System: AMES SALMONELLA TYPHIMURIUM, Strain/Indicator: TA100, Metabolic Activation: RAT, LIVER, S-9, AROCLOR 1254, Method: PREINCUBATION",inactive; negative
same,mutagenic call,"Test System: AMES SALMONELLA TYPHIMURIUM, Strain/Indicator: TA1535, Metabolic Activation: RAT, LIVER, S-9, AROCLOR 1254, Method: PREINCUBATION",inactive; negative
[N-]=[N+]=O,mutagenic call,"Test System: CHINESE HAMSTER V-79, Strain/Indicator: V-79/8-AZAGUANINE, Metabolic Activation: NONE, Method: STANDARD PLATE",active; positive
C=C(C)C1CO1 (configuration not stated),mutagenic call,[2],inactive; negative
same,mutagenic call,[1],inactive; negative
C[N+]1([O-])CCC[C@H]1c1cccnc1 (some centres not stated),mutagenic call,[3],inactive; negative
same,mutagenic call,"Test System: AMES SALMONELLA TYPHIMURIUM, Strain/Indicator: TA98, Metabolic Activation: RAT, LIVER, S-9, AROCLOR 1254 (5%), Method: PREINCUBATION",inactive; negative
same,mutagenic call,"Test System: AMES SALMONELLA TYPHIMURIUM, Strain/Indicator: TA100, Metabolic Activation: NONE, Method: PREINCUBATION",inactive; negative
same,mutagenic call,"Test System: AMES SALMONELLA TYPHIMURIUM, Strain/Indicator: TA100, Metabolic Activation: RAT, LIVER, S-9, AROCLOR 1254 (5%), Method: PREINCUBATION",inactive; negative
same,mutagenic call,"Test System: AMES SALMONELLA TYPHIMURIUM, Strain/Indicator: TA1535, Metabolic Activation: NONE, Method: PREINCUBATION",inactive; negative
same,mutagenic call,"Test System: AMES SALMONELLA TYPHIMURIUM, Strain/Indicator: TA1535, Metabolic Activation: RAT, LIVER, S-9, AROCLOR 1254 (5%), Method: PREINCUBATION",inactive; negative
same,mutagenic call,"Test System: AMES SALMONELLA TYPHIMURIUM, Strain/Indicator: TA1537, Metabolic Activation: NONE, Method: PREINCUBATION",inactive; negative
same,mutagenic call,"Test System: AMES SALMONELLA TYPHIMURIUM, Strain/Indicator: TA1537, Metabolic Activation: RAT, LIVER, S-9, AROCLOR 1254 (5%), Method: PREINCUBATION",inactive; negative
same,mutagenic call,"Test System: AMES SALMONELLA TYPHIMURIUM, Strain/Indicator: TA1538, Metabolic Activation: NONE, Method: PREINCUBATION",inactive; negative
same,mutagenic call,"Test System: AMES SALMONELLA TYPHIMURIUM, Strain/Indicator: TA1538, Metabolic Activation: RAT, LIVER, S-9, AROCLOR 1254 (5%), Method: PREINCUBATION",inactive; negative
O=c1[nH]cc(/C=C/Br)c(=O)[nH]1,mutagenic call,"Test System: CHINESE HAMSTER V-79, Strain/Indicator: V-79/8-AZAGUANINE, Metabolic Activation: NONE",inactive; negative
same,mutagenic call,"Test System: UDS RODENT HEPATOCYTES, Strain/Indicator: THY INCORP, Metabolic Activation: NONE",inactive; negative
CCOC(Cl)CCl (configuration not stated),mutagenic call,"End Point: IN VITRO CHROMOSOMAL ABERRATIONS, Test System: CHL CELLS, Metabolic Activation: NONE",active; positive (structural and ploidy changes)
same,mutagenic call,"End Point: IN VITRO CHROMOSOMAL ABERRATIONS, Test System: CHL CELLS, Metabolic Activation: RAT, LIVER, S-9, SODIUM PHENOBARBITAL AND 5,6-BENZOFLAVONE",active; positive (structural changes)
CCCCN1C2c3ccccc3-c3ccccc3C21 (configuration not stated),mutagenic call,[1],active; positive
same,mutagenic call,"Test System: CHINESE HAMSTER V-79, Strain/Indicator: V-79/6-THIOGUANINE, Metabolic Activation: NONE, Method: STANDARD PLATE",inactive; negative
